Data reported in publication PMC7969007, “The CRISPR ancillary effector Can2 is a dual-specificity nuclease potentiating type III CRISPR defence” (Nucleic Acids Research, 2021).

Columns and labels:
SthCan2 = molecular target: T1, SthCan2 (Sulfobacillus thermosulfidooxidans, UniProt A0A8I3AZU2); experiment: X-ray crystal structure (co-crystal, […] A); type: binding; conditions: SeMet protein, protein:cA4 1:1 molar; one cA4 per dimer at the CARF dimer interface; allosteric activator of Mn2+-dependent nuclease; not degraded by the enzyme
T1 construct: synthetic gene in pEHisV5TEV, His tag cut by TEV, E. coli C43 (SeMet in B834 for the crystal); homodimer; residues 3-366 traced
T1 sequence (A0A8I3AZU2 1-366): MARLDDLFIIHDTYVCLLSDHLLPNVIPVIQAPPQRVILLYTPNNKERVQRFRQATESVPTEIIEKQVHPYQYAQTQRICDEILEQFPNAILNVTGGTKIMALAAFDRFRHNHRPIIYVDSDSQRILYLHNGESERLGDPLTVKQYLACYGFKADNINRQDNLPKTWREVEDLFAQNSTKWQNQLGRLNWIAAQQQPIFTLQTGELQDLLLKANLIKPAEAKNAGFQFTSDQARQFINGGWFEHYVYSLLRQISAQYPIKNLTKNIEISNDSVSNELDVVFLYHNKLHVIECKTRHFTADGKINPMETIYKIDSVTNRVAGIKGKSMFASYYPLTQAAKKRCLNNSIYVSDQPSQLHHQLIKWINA

[1] = molecular target: Can2 (CRISPR ancillary nuclease 2) from Sulfobacillus thermosulfidooxidans, selenomethionine labelled (Sulfobacillus thermosulfidooxidans); experiment: crystal structure; SeMet SthCan2 at 8 mg/ml co-crystallised with cA4 at 1:1 protein:cA4; 20% (w/v) PEG 3350, 0.2 M ammonium nitrate pH 6.3, room temperature; 2.02 Å; four protein molecules in the asymmetric unit

| Molecule | X-ray crystal structure (co-crystal, 2.02 A) (SthCan2) | stoichiometry N [1] |
| --- | --- | --- |
| Nc1ncnc2c1ncn2[C@@H]1O[C@@H]2COP(=O)(O)O[C@H]3[C@@H](O)[C@H](n4cnc5c(N)ncnc54)O[C@@H]3COP(=O)(O)O[C@H]3[C@@H](O)[C@H](n4cnc5c(N)ncnc54)O[C@@H]3COP(=O)(O)O[C@H]3[C@@H](O)[C@H](n4cnc5c(N)ncnc54)O[C@@H]3COP(=O)(O)O[C@H]2[C@H]1O [cA4] | form two dimers each bound to a molecule of cA4 |  |
| Can2 (CRISPR ancillary nuclease 2) from Sulfobacillus thermosulfidooxidans, selenomethionine labelled (enzyme) |  | 2 |
